Measurements reported in patent US12331026B2 (NiKang Therapeutics, Inc., priority 2022, dated 2025).

molecular target: T1, CDK2 (Homo sapiens, UniProt P24941); assay: Phospho-RB measurement in OVCAR3 cells (HTRF phospho-RB S807/811); assay type: cell-based; conditions: phosphorylation of RB protein at S807/811, HTRF, 24 h compound treatment, 0.3 to 10,000 nM, read-out: pRb (uM)
T1 construct: endogenous in cells; host or cells: OVCAR3 cells
Method: The ability of compounds of Formula (I) to inhibit CDK2 was determined in OVCAR3 cells. Phosphorylation of RB protein at S807/811 were measured using HTRF phospho-RB cellular kits (Cat #64RBS807PEG) from Cisbio.
On Day 1, OVCAR3 cells were seeded into 96-well tissue-culture treated plates at 20,000 cells/well in 200 μL and incubated overnight at 37° C. in CO2 atmosphere. On Day 2, the cells were treated with test compounds at concentrations from 0.3 to 10,000 nM using HP D300 digital dispenser. Twenty-four hours after compound treatment, cell culture media was removed by flicking the plate and tapping the plate against clean paper towel. Immediately 30 μL 1× lysis buffer was supplemented from the kit and the plate was incubated at room temperature on shaker for 30 min. After homogenization by pipetting up and down, 8 μL cell lysate from 96-well cell culture plate was transferred to 384-well small volume white detection plate. 2 μL premixed detection solution was added and the plate was covered with sealer. To prepare the detection solution, d2 conjugated-phospho-RB antibody and Eu-cryptate conjugated phosphor-RB antibody were diluted into detection buffer following manufacturer's instruction.
Detection plates were incubated for 4 h at room temperature and read on ClarioStar (BMG Labtech) in TR-FRET mode ([…]). The TR-FRET ratio (665 nM1/620 nM) was plotted against the compound concentration and normalized to DMSO controls. Half maximal inhibition concentration (IC50) values are calculated with a four-parameter logistic fit using GraphPad Prism (version 8; La Jolla, CA).

Row | Structure (SMILES) | IC50 [µM]
1 | O=S1(=O)CC2(CC(Nc3nccc(-c4sc(C56CC(CO)(C5)C6)nc4-c4cccc(NS(=O)(=O)c5c(F)cccc5F)c4F)n3)C2)C1 [Example 34, N-(3-(5-(2-((2,2-dioxido-2-thiaspiro[3.3]heptan-6-yl)amino)pyrimidin-4-yl)-2-(3-(hydroxymethyl)bicyclo[1.1.1]pentan-1-yl)thiazol-4-yl)-2-fluorophenyl)-2,6-difluorobenzenesulfonamide] | 2.01
2 | O=S1(=O)CC2(CC(Nc3nccc(-c4sc(C56CC(C5)C6)nc4-c4cccc(NS(=O)(=O)c5c(F)cccc5OC(F)F)c4F)n3)C2)C1 [Example 58, N-(3-(2-(bicyclo[1.1.1]pentan-1-yl)-5-(2-((2,2-dioxido-2-thiaspiro[3.3]heptan-6-yl)amino)pyrimidin-4-yl)thiazol-4-yl)-2-fluorophenyl)-2-(difluoromethoxy)-6-fluorobenzenesulfonamide] | 0.09
3 | CS(=O)(=O)[C@H]1CC[C@@H](Nc2nccc(-c3sc(C45CC(F)(C4)C5)nc3-c3cccc(NS(=O)(=O)c4c(F)cccc4C(F)(F)F)c3F)n2)CC1 [Example 87, 2-fluoro-N-(2-fluoro-3-(2-(3-fluorobicyclo[1.1.1]pentan-1-yl)-5-(2-(((1s,4s)-4-(methylsulfonyl)cyclohexyl)-amino)pyrimidin-4-yl)thiazol-4-yl)phenyl)-6-(trifluoromethyl)benzenesulfonamide] | 0.077
4 | CC1CN(C)CC(C)N1c1nc(-c2cccc(NS(=O)(=O)c3c(F)cccc3F)c2F)c(-c2ccnc(NC3CC4(C3)CS(=O)(=O)C4)n2)s1 (stereo not shown) [Example 53, N-(3-(5-(2-((2,2-dioxido-2-thiaspiro[3.3]heptan-6-yl)amino)-pyrimidin-4-yl)-2-(2,4,6-trimethylpiperazin-1-yl)thiazol-4-yl)-2-fluorophenyl)-2,6-difluorobenzenesulfonamide] | 0.04
5 | O=S1(=O)CC2(CC(Nc3nccc(-c4sc(C56CC(C5)C6)nc4-c4cccc(NS(=O)(=O)c5c(Cl)cccc5Cl)c4F)n3)C2)C1 [Example 31, N-(3-(2-(bicyclo[1.1.1]pentan-1-yl)-5-(2-((2,2-dioxido-2-thiaspiro[3.3]heptan-6-yl)amino)pyrimidin-4-yl)thiazol-4-yl)-2-fluorophenyl)-2,6-dichlorobenzenesulfonamide] | 0.07
6 | O=S1(=O)CC2(CC(Nc3nccc(-c4sc(C56CC(C(F)(F)F)(C5)C6)nc4-c4cccc(NS(=O)(=O)c5c(Cl)cccc5C(F)(F)F)c4F)n3)C2)C1 [Example 91, 2-chloro-N-(3-(5-(2-((2,2-dioxido-2-thiaspiro[3.3]heptan-6-yl)amino)pyrimidin-4-yl)-2-(3-(trifluoromethyl)bicyclo-[1.1.1]pentan-1-yl)thiazol-4-yl)-2-fluorophenyl)-6-(trifluoromethyl)benzenesulfonamide] | 0.15
7 | CC1(C)CCN1c1nc(-c2cccc(NS(=O)(=O)c3c(F)cccc3F)c2F)c(-c2ccnc(NC3CC4(C3)CS(=O)(=O)C4)n2)s1 [Example 29, N-(3-(2-(2,2-dimethylazetidin-1-yl)-5-(2-((2,2-dioxido-2-thiaspiro[3.3]heptan-6-yl)amino)pyrimidin-4-yl)thiazol-4-yl)-2-fluorophenyl)-2,6-difluorobenzenesulfonamide] | 0.27
8 | COc1cccc(F)c1S(=O)(=O)Nc1cccc(-c2nc(C34CC(C3)C4)sc2-c2ccnc(NC3CC4(C3)CS(=O)(=O)C4)n2)c1F [Example 55, N-(3-(2-(bicyclo[1.1.1]pentan-1-yl)-5-(2-((2,2-dioxido-2-thiaspiro[3.3]heptan-6-yl)amino)pyrimidin-4-yl)thiazol-4-yl)-2-fluorophenyl)-2-fluoro-6-methoxybenzenesulfonamide] | 1.35
9 | O=S1(=O)CC2(CC(Nc3nccc(-c4sc(C56CC(C5)C6)nc4-c4cccc(NS(=O)(=O)c5c(F)cccc5F)c4F)n3)C2)C1 [Example 3, N-(3-(2-(bicyclo[1.1.1]pentan-1-yl)-5-(2-((2,2-dioxido-2-thiaspiro[3.3]heptan-6-yl)amino)pyrimidin-4-yl)thiazol-4-yl)-2-fluorophenyl)-2,6-difluorobenzenesulfonamide] | 0.12
10 | CC(C)(C)OC(=O)N1CCC(C)(c2nc(-c3cccc(NS(=O)(=O)c4c(F)cccc4F)c3F)c(-c3ccnc(NC4CC5(C4)CS(=O)(=O)C5)n3)s2)CC1 [Example 13, tert-butyl 4-(4-(3-((2,6-difluorophenyl)sulfonamido)-2-fluorophenyl)-5-(2-((2,2-dioxido-2-thiaspiro[3.3]heptan-6-yl)amino)pyrimidin-4-yl)thiazol-2-yl)-4-methylpiperidine-1-carboxylate] | 0.73
11 | CS(=O)(=O)[C@H]1CC[C@@H](Nc2nccc(-c3sc(C45CC(Cl)(C4)C5)nc3-c3cccc(NS(=O)(=O)c4c(F)cccc4C(F)(F)F)c3F)n2)CC1 [Example 146, N-(3-(2-(3-chlorobicyclo[1.1.1]pentan-1-yl)-5-(2-(((1s,4s)-4-(methylsulfonyl)cyclohexyl)amino)pyrimidin-4-yl)thiazol-4-yl)-2-fluorophenyl)-2-fluoro-6-(trifluoromethyl)benzenesulfonamide] | 0.2

Next, values leading:

Row | IC50 [µM] | Structure (SMILES)
12 | 0.24 | O=S1(=O)CC2(CC(Nc3nccc(-c4sc(N5CC6CCC(CC6)C5)nc4-c4cccc(NS(=O)(=O)c5c(F)cccc5F)c4F)n3)C2)C1 [Example 21]
13 | 0.1 | CC1(C)CCN1c1nc(-c2cccc(NS(=O)(=O)c3c(F)cccc3F)c2F)c(-c2ccnc(N[C@H]3[C@@H]4CS(=O)(=O)C[C@@H]43)n2)s1 [Example 100, N-(3-(2-(2,2-dimethylazetidin-1-yl)-5-(2-(((1R,5S,6r)-3,3-dioxido-3-thiabicyclo[3.1.0]hexan-6-yl)amino)pyrimidin-4-yl)thiazol-4-yl)-2-fluorophenyl)-2,6-difluorobenzenesulfonamide]
14 | 0.1 | CC1(C#N)CC2CCC(C1)N2c1nc(-c2cccc(NS(=O)(=O)c3c(F)cccc3F)c2F)c(-c2ccnc(NC3CC4(C3)CS(=O)(=O)C4)n2)s1 (stereo not shown) [Example 33, N-(3-(2-(3-cyano-3-methyl-8-azabicyclo[3.2.1]octan-8-yl)-5-(2-((2,2-dioxido-2-thiaspiro[3.3]heptan-6-yl)amino)pyrimidin-4-yl)thiazol-4-yl)-2-fluorophenyl)-2,6-difluorobenzenesulfonamide]
15 | 0.1 | O=S1(=O)C[C@@H]2[C@H](C1)[C@@H]2Nc1nccc(-c2sc(N3C4CCC3CN(C3CC(F)(F)C3)C4)nc2-c2cccc(NS(=O)(=O)c3c(F)cccc3C(F)(F)F)c2F)n1 [Example 108, N-(3-(2-(3-(3,3-difluorocyclobutyl)-3,8-diazabicyclo[3.2.1]octan-8-yl)-5-(2-(((1R,5S,6s)-3,3-dioxido-3-thiabicyclo[3.1.0]hexan-6-yl)amino)pyrimidin-4-yl)thiazol-4-yl)-2-fluorophenyl)-2-fluoro-6-(trifluoromethyl)benzenesulfonamide]
16 | 0.05 | CC1(C)CCN1c1nc(-c2cccc(NS(=O)(=O)c3c(F)cccc3C(F)(F)F)c2F)c(-c2ccnc(N[C@H]3[C@@H]4CS(=O)(=O)C[C@@H]43)n2)s1 [Example 121, N-(3-(2-(2,2-dimethylazetidin-1-yl)-5-(2-(((1R,5S,6r)-3,3-dioxido-3-thiabicyclo[3.1.0]hexan-6-yl)amino)pyrimidin-4-yl)thiazol-4-yl)-2-fluorophenyl)-2-fluoro-6-(trifluoromethyl)benzenesulfonamide]
17 | 0.17 | O=S1(=O)C[C@@H]2[C@H](C1)[C@H]2Nc1nccc(-c2sc(N3C4CCC3CN(C3CC(F)(F)C3)C4)nc2-c2cccc(NS(=O)(=O)c3c(F)cccc3OC(F)F)c2F)n1 [Example 123, N-(3-(2-(3-(3,3-difluorocyclobutyl)-3,8-diazabicyclo[3.2.1]octan-8-yl)-5-(2-(((1R,5S,6r)-3,3-dioxido-3-thiabicyclo[3.1.0]hexan-6-yl)amino)pyrimidin-4-yl)thiazol-4-yl)-2-fluorophenyl)-2-(difluoromethoxy)-6-fluorobenzenesulfonamide]
18 | 0.42 | O=S1(=O)CC2(CC(Nc3nccc(-c4sc(N5CC6CCC(C5)N6c5ccccn5)nc4-c4cccc(NS(=O)(=O)c5c(F)cccc5F)c4F)n3)C2)C1 [Example 37, N-(3-(5-(2-((2,2-dioxido-2-thiaspiro[3.3]heptan-6-yl)amino)-pyrimidin-4-yl)-2-(8-(pyridin-2-yl)-3,8-diazabicyclo[3.2.1]octan-3-yl)thiazol-4-yl)-2-fluorophenyl)-2,6-difluorobenzenesulfonamide]
19 | 0.07 | CN1CC2CCC(C1)N2c1nc(-c2cccc(NS(=O)(=O)c3c(F)cccc3F)c2F)c(-c2ccnc(NC3CC4(C3)CS(=O)(=O)C4)n2)s1 [Example 135, N-(3-(5-(2-((2,2-dioxido-2-thiaspiro[3.3]heptan-6-yl)amino)-pyrimidin-4-yl)-2-(3-methyl-3,8-diazabicyclo[3.2.1]octan-8-yl)thiazol-4-yl)-2-fluorophenyl)-2,6-difluorobenzenesulfonamide]
